According to publication PMC5895803, “Inhibition of cancer stem cell like cells by a synthetic retinoid” (Nature Communications, 2018):
Entries after “also recorded” stand apart in the source; their conditions may differ.

Tests used:
[1] = test system: Mitf; assay: Mitf expression by qPCR in TRCs; assay type: cell-based, murine; conditions: 0.1–10 µM for 24 h
Procedure: (§1) Total mRNA was isolated from the cells using the Trizol reagent according to the supplier’s instruction (Invitrogen). Reverse transcription (RT) was performed using the TransScript First-strand cDNA Synthesis SuperMix (TransGen), according to the manufacturer’s protocol. Real-time RT-PCR was performed using GoTaq qPCR Master Mix (Promega). The data were normalized against mouse glyceraldehyde 3-phosphate dehydrogenase. The primer sequences are as follows: mouse GAPDH (F: 5′-[…]-3′, R: 5′-[…]-3′); mouse RARα (F: 5′-[…]-3′, R: 5′-[…]-3′); mouse RARβ (F: 5′-[…]-3′, R: 5′-[…]-3′); mouse RARγ (F: 5′-[…]-3′, R:5′-[…]-3′); mouse Sox2 (F: 5′-[…]-3′, R: 5′-[…]-3′); mouse Mitf (F: 5′-[…]-3′, R: 5′-[…]-3′).
(§2) Supplementary Figure 39. WYC-209 decreases Sox2 expression but has no effects on Mitf expression. Murine melanoma cells B16-F1 were seeded into 3D soft fibrin gels and then were treated with 0.1% DMSO, 0.1, 1 or 10 µM WYC-209, WYC-209A, or WYC-209B on day 4. mRNA of cells were extracted after 24 hours. Sox2 (a) and Mitf (b) expressions […]
(§3) (1 picture or pasted object on this page, not shown here)

[2] = test system: human ovarian cancer A2780; assay: Colony growth of A2780 TRCs in 90-Pa fibrin gels; assay type: cell-based
Procedure: (§4) Salmon fibrinogen and thrombin were purchased from Reagent Proteins (CA, USA). 3D fibrin gels were prepared as described previously[5],[6]. In brief, fibrinogen was diluted into 2 mg mL^−1 with T7 buffer (pH 7.4, 50 mM Tris, 150 mM NaCl). Cells were detached from 2D rigid dishes and cell density was adjusted to 10^4 cells per mL. Fibrinogen and cell solution mixture were made by mixing the same volume of fibrinogen solution and cell solution, resulting in 1 mg mL^−1 fibrinogen and 5000 cells per mL in the mixture fibrin gels. A volume of 50 μL cell/fibrinogen mixture was seeded into each well of 96-well plate and mixed well with pre-added 1 μL thrombin (100 U mL^−1). The cell culture plate was then incubated in 37 °C cell culture incubator for 10 min. Finally, 200 μL of DMEM medium containing 10% FBS and antibiotics was added.

[3] = test system: 3T3 fibroblasts; assay: Non-cancerous 3T3 fibroblasts on rigid dishes; assay type: cell-based, murine; conditions: 0.1, 1, or 10 μM, 18 hrs
Procedure: Murine fibroblast cell line 3T3 cells were cultured on rigid plastic and treated with 0.1, 1, or 10 μM WYC-209 at the time of plating and observed for 18 hrs. Cell nucleus were stained with DAPI and apoptotic cells were assayed with PI. None: medium only; DMSO: medium containing 0.1% DMSO. (a) Representative images of cells at hour 18. (b) Quantitation of cell numbers per view field at hour 18. Mean ± s.e.m.; n= 5 randomly chosen view-fields; 3 separate experiments; no significant differences were observed between groups (Student’s t-test). Scale bars, 500 μm.
as §3

[4] = test system: human breast cancer MCF-7; assay: Colony growth of MCF-7 TRCs in 90-Pa fibrin gels; assay type: cell-based
Procedure: as §4

[5] = Systemic toxicity in treated mice (body weight, organs); assay type: in vivo, C57BL/6 mice
Description: Four- to six-week-old female and male C57BL/6 mice were used in mice experiment. Mice were randomized into different groups. In metastasis experiment, B16-F1 cell spheroids were selected from 3D 90-Pa fibrin gels and pipetted to single cells. These TRCs were harvested and the cell number was counted under microscopy. The cells were then suspended in PBS with appropriate cell density. Thirty thousand TRCs were intravenously injected into the tail vein of each wild-type C57BL/6 mouse. Five days later, inoculated mice were intravenous implanted with 0.022 mg kg^−1 WYC-209, 0.22 mg kg^−1 WYC-209, or 0.1% DMSO every two days. The mice were euthanized and examined for lung tumor formation at day 30. In treated TRCs injected in vivo experiments, B16-F1 cells were seeded into 3D 90-Pa fibrin gels and treated with 10 µM WYC-209 or 0.1% DMSO on day 3, then isolated treated TRCs colonies on day 5 and pipetted into single cell. 30,000 of TRCs were intravenously injected into the tail vein of each wild-type C57BL/6 mouse. No blinding was performed in the mice experiments.
Lung, liver, spleen, bone, stomach, and brain of C57BL/6 mice were fixed by 4% paraformaldehyde then were embedded in paraffin and cut to ~4 µm thick sections by Thermo FINESSE 325. Organ sections were stained by H&E and slides were evaluated for tumor formation by a veterinary pathologist blinded to sample identity.

[6] = test system: human lung cancer A549; assay: Colony growth of A549 TRCs in 90-Pa fibrin gels; assay type: cell-based
Procedure: as §4

[7] = test system: Sox2; assay: Sox2 expression by qPCR in TRCs; assay type: cell-based, murine
Procedure: as §1, §2, §3

Question: For `CCOC(=O)c1cnc(C#Cc2ccc3c(c2)C(C)(C)CC[S+]3[O-])nc1` (stereo not drawn) [WYC-209], which “Change in Mitf expression” value [1] is on record?
Answer: The value was “did not change”.

Question: And the IC50 ([2]; 0 h, A2780, treated on day 0)?
Answer: The IC50 was 0.23 µM.

Question: What about the inhibition at 10 µM ([2]; A2780, 10 μM) of the same compound?
Answer: The inhibition at 10 µM was 100%.

Question: What about the “Impact / toxicity on non-cancerous 3T3 fibroblasts” value [3] of the same compound?
Answer: The value was “little toxicity; also recorded: little impact”.

Question: And the IC50 ([4]; MCF7, 0 h, MCF-7, treated on day 0)?
Answer: Its IC50 is 0.1 µM.

Question: And the inhibition at 10 µM ([4]; MCF7, MCF-7, 10 μM)?
Answer: Its inhibition at 10 µM is 100%.

Question: What about the “Mouse body weight versus control group” value ([5]; 0.022 or 0.22 mg kg−1) of the same compound?
Answer: Its value is “no effects on mouse weight”.

Question: And the “Toxic effects in mice / on organs” value ([5]; 0.022 or 0.22 mg kg−1 i.v. every two days)?
Answer: Its value is “No abnormalities in mouse organs; also recorded: no toxic effects on mouse livers; also recorded: no toxic effects on mouse stomach; also recorded: no observable toxic or necrotic effects or weight loss; also recorded: without showing apparent toxicity”.

Question: And the IC50 ([6]; 0 h, A549, treated on day 0)?
Answer: The IC50 was 0.1 µM.

Question: And the inhibition at 10 µM ([6]; A549, 10 μM)?
Answer: The inhibition at 10 µM was 100%.

Question: What about the “Decrease of Sox2 expression” value ([7]; 10 μM, 24 h) of the same compound?
Answer: The value was ~ 50%.

Question: What about the “Change in Sox2 expression” value ([7]; 0.1 or 1 µM) of the same compound?
Answer: Its value is “no change”.
